Test results from patent US4839374A, “4-((Bicyclic heterocyclyl)-methyl and -hetero)-piperidines” (Janssen Pharmaceutica, N.V., priority 1987, dated 1989).
Where two headings read alike, the source gives them in different places.

Assays:
[1] = system: compound 48/80-induced lethality; assay: Protection of rats from compound 48/80-induced lethality; assay type: in vivo, rats of an inbred Wistar strain; settings: protection of 50% of animals, survival after 4 hours; for ED50: Rattus norvegicus, 4 h, read-out: Compound 48/80 lethality test in rats ED50, s.c. or p.o. 1 h before compound 48/80 0.5 mg/kg i.v.
Outline: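 Male inbred Wistar rats (240-260 g), starved overnight, dosed subcutaneously or orally with compound or 0.9% NaCl before compound 48/80 challenge. Survival at 4 hours counted as protection. ED50 in mg/kg is the dose protecting 50% of animals from lethality.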

effects of serotonin = assay: Antagonistic activity on the effects of serotonin in the gastric lesion test (lesions induced by compound 48/80); assay type: in vivo, rats of a Wistar inbred strain; settings: for ED50: Rattus norvegicus, po, read-out: gastric lesion test ED50
Method: Antagonistic activity on the effects of serotonin in the gastric lesion test.
The shock, followed by dead, can be avoided if the rats are pretreated with a classical H 1 antagonist.
Male rats of a Wistar inbred strain, weighing 220-250 g, were starved overnight, water being available ad libitum. The test compounds were administered orally as a solution or as a suspension in aqueous medium. A control rat and a "blank" rat received the test compound. One hour later 5-[4-(diphenylmethyl)1-piperazinylmethyl]-1-methyl-1H-benzimidazole-2-methanol was administered subcutaneously to all rats at the dose of 2.5 mg/kg. […] Four hours after the intravenous injection of compound 48/80, the rats were decapitated and the stomachs were removed. Subsequently the stomachs were inspected for distension and contents (blood, fluid, food) and thoroughly rinsed. The macroscopic lesions were scored from 0 to +++, 0 corresponding to complete absence of visible lesions and the highest score corresponding to reddish rough patches covering more than half the glandular area.
The second column of tables 1-4 show for a number of compounds of formula (I) the doses (in mg/kg body weight) at which the distension of the stomach as well as the lesions in the glandular area of the stomach are completely absent in 50% of the test rats (ED50 -value).

[2] = compound 48/80 1 mg/kg i.v., distension and lesions of stomach completely absent in 50% of rats

`CNC(=S)NCCN1CCC(Cc2nc3ccccc3n2Cc2ccc(F)cc2)CC1` [Compound 428, N-[2-[4-[[1-[(4-fluorophenyl)methyl]-1H-benzimidazol-2-yl]methyl]-1-piperidinyl]ethyl]-N'-methylthiourea] was tested, and the ED50 [1] was 0.04 mg/kg and the ED50 (effects of serotonin; [2]) was 0.01 mg/kg.

`c1csc(Cn2c(CC3CCN(CCNc4nc5cnccc5[nH]4)CC3)nc3ccccc32)c1` [Compound 416, N-[2-[4-[[1-(2-thienylmethyl)-1H-benzimidazol-2-yl]methyl]-1-piperidinyl]ethyl]-1H-imidazo[4,5-c]pyridin-2-amine] showed an ED50 [1] of 0.04 mg/kg and an ED50 (effects of serotonin) of 0.04 mg/kg.

With `Cn1c(O)nc2c(NCCN3CCC(Cc4nc5ccccc5n4Cc4ccc(F)cc4)CC3)ncnc21` [Compound 371] the ED50 [1] was 0.16 mg/kg and the ED50 (effects of serotonin; [2]) was 0.63 mg/kg.

`O=c1[nH]c2ccccc2c(=O)n1CCCCN1CCC(Cc2nc3ccccc3n2Cc2ccc(F)cc2)CC1` [Compound 489, 3-[4-[4-[[1-[(4-fluorophenyl)methyl]-1H-benzimidazol-2-yl]methyl]-1-piperidinyl]butyl]-2,4(1H,3H)-quinazolinedione] showed an ED50 [1] of 0.08 mg/kg and an ED50 (effects of serotonin; [2]) of 0.63 mg/kg.

`Cn1cccc1C(=O)NCCN1CCC(Cc2nc3ccccc3n2Cc2ccc(F)cc2)CC1` [Compound 433, N-[2-[4-[[1-[(4-fluorophenyl)methyl]-1H-benzimidazol-2-yl]methyl]-1-piperidinyl]ethyl]-1-methyl-1H-pyrrole-2-carboxamide] showed an ED50 [1] of 0.01 mg/kg and an ED50 (effects of serotonin; [2]) of 0.16 mg/kg.

Compound `O=c1c2ccccc2[nH]c(=S)n1CCN1CCC(Cc2nc3ccccc3n2Cc2ccco2)CC1` [Compound 461, 3-[2-[4-[[1-(2-furanylmethyl)-1H-benzimidazol-2-yl]methyl]-1-piperidinyl]ethyl]-2,3-dihydro-2-thioxo-4(1H)-quinazolinone] has an ED50 [1] of 0.08 mg/kg and an ED50 (effects of serotonin) of 0.08 mg/kg.

`Fc1ccc(Cn2c(CC3CCN(CCNc4ncccn4)CC3)nc3cccnc32)cc1` [Compound 376, N-[2-[4-[[3-[(4-fluorophenyl)methyl]-3H-imidazo[4,5-b]pyridin-2-yl]methyl]-1-piperidinyl]ethyl]-2-pyrimidinamine] showed an ED50 [1] of 0.02 mg/kg and an ED50 (effects of serotonin; [2]) of 0.63 mg/kg.

`O=C1OCCN1CCN1CCC(Cc2nc3ccccc3n2Cc2ccc(F)cc2)CC1` [Compound 385, 3-[2-[4-[[1-[(4-fluorophenyl)methyl]-1H-benzimidazol-2-yl]methyl]-1-piperidinyl]ethyl]2-oxazolidinone] gave an ED50 [1] of 0.01 mg/kg and an ED50 (effects of serotonin) of 0.08 mg/kg.

`c1coc(Cn2c(CC3CCN(CCNc4nc5cnccc5[nH]4)CC3)nc3ccccc32)c1` [Compound 418, N-[2-[4-[[1-(2-furanylmethyl)-1H-benzimidazol-2-yl]methyl]-1-piperidinyl]ethyl]-1H-imidazo[4,5-c]pyridin-2-amine] showed an ED50 [1] of 0.02 mg/kg and an ED50 (effects of serotonin) of 0.04 mg/kg.

`Cc1csc(NCCN2CCC(Cc3nc4ccccc4n3Cc3ccc(F)cc3)CC2)n1` [Compound 456, 4-[(1-[(4-fluorophenyl)methyl]-1H-benzimidazol-2-yl]methyl]-N-(4-methyl-2-thiazolyl)-1-piperidineethanamine] showed an ED50 [1] of 0.01 mg/kg and an ED50 (effects of serotonin; [2]) of 0.63 mg/kg.

`O=C(NCCN1CCC(Cc2nc3ccccc3n2Cc2ccc(F)cc2)CC1)c1ccsc1` [Compound 431] was tested, and the ED50 [1] was 0.04 mg/kg and the ED50 (effects of serotonin; [2]) was 0.005 mg/kg.

`Fc1ccc(Cn2c(CC3CCN(CCNc4nc5cnccc5s4)CC3)nc3ccccc32)cc1` [Compound 332, N-[2-[4-[[1-[(4-fluorophenyl)methyl]-1H-benzimidazol-2-yl]methyl]-1-piperidinyl]ethyl]thiazolo[4,5-c]pyridin-2-amine] was tested, and the ED50 [1] was 0.08 mg/kg and the ED50 (effects of serotonin) was 0.08 mg/kg.

`CN(CCN1CCC(Cc2nc3ccccc3n2Cc2ccc(F)cc2)CC1)c1ncccn1` [Compound 514, N-[2-[4-[[1-[(4-fluorophenyl)methyl]-1H-benzimidazol-2-yl]methyl]-1-piperidinyl]ethyl]-N-methyl-2-pyrimidinamine] was tested, and the ED50 [1] was 0.02 mg/kg and the ED50 (effects of serotonin; [2]) was 0.63 mg/kg.

`COc1ccc(CCN2CCC(Cc3nc4ccccc4n3Cc3ccoc3)CC2)cc1` [Compound 260] was tested, and the ED50 [1] was 0.01 mg/kg and the ED50 (effects of serotonin; [2]) was 0.63 mg/kg.

Compound `Fc1ccc(Cn2c(CC3CCN(CCOc4ncccn4)CC3)nc3ccccc32)cc1` [Compound 391, 1-[(4-fluorophenyl)methyl]-2-[[1-[2-(2-pyrimidinyloxy)ethyl]-4-piperidinyl]methyl]-1H-benzimidazole] has an ED50 [1] of 0.02 mg/kg and an ED50 (effects of serotonin; [2]) of 0.02 mg/kg.

Compound `CC(C)NC(=O)CN1CCC(Cc2nc3cccnc3n2Cc2ccc(F)cc2)CC1` [Compound 128] has an ED50 [1] of 0.16 mg/kg and an ED50 (effects of serotonin; [2]) of 0.63 mg/kg.

`O=c1[nH]c2ccccc2c(=O)n1CCN1CCC(Cc2nc3ccccc3n2Cc2ccc(F)cc2)CC1` [Compound 209] showed an ED50 [1] of 0.08 mg/kg and an ED50 (effects of serotonin; [2]) of 0.63 mg/kg.

In the case of `O=c1cc[nH]c(NCCN2CCC(Cc3nc4ccccc4n3Cc3ccc(F)cc3)CC2)n1` [Compound 331, 2-[[2-[4-[[1-[(4-fluorophenyl)methyl]-1H-benzimidazol-2-yl]methyl]-1-piperidinyl]ethyl]amino]-4(1H)-pyrimidinone], the ED50 [1] is reported as 0.04 mg/kg and the ED50 (effects of serotonin; [2]) is reported as 0.02 mg/kg.

With `c1cnc(NCCN2CCC(Cc3nc4cccnc4n3Cc3cccs3)CC2)nc1` [Compound 342] the ED50 [1] was 0.02 mg/kg and the ED50 (effects of serotonin; [2]) was 0.16 mg/kg.

Compound `Cc1nc2ccccn2c(=O)c1CCN1CCC(Cc2nc3ncccc3n2Cc2ccc(F)cc2)CC1` [Compound 272] has an ED50 [1] of 0.08 mg/kg and an ED50 (effects of serotonin; [2]) of 0.63 mg/kg.

With `Cc1cc(Cl)nc(NCCN2CCC(Cc3nc4ccccc4n3Cc3ccc(F)cc3)CC2)n1` [Compound 382, 4-chloro-N-[2-[4-[[1-[(4-fluorophenyl)methyl]-1H-benzimidazol-2-yl]methyl]-1-piperidinyl]ethyl]-6-methyl-2-pyrimidinamine] the ED50 [1] was 0.08 mg/kg and the ED50 (effects of serotonin; [2]) was 0.63 mg/kg.

Compound `Cc1nc2n(c(=O)c1CCN1CCC(Cc3nc4ccccc4n3Cc3cccs3)CC1)CCCC2` [Compound 263] has an ED50 [1] of 0.04 mg/kg and an ED50 (effects of serotonin) of 0.04 mg/kg.

For `Fc1ccc(Cn2c(CC3CCN(CCc4ccccn4)CC3)nc3ccccc32)cc1` [Compound 103, 1-[(4-fluorophenyl)methyl]-2-[[1-[2-(2-pyridinyl)ethyl]-4-piperidinyl]-methyl]-1H-benzimidazole], the ED50 [1] was 0.005 mg/kg and the ED50 (effects of serotonin; [2]) was 0.16 mg/kg.

`O=c1c2ccccc2[nH]c(=S)n1CCN1CCC(Cc2nc3ccccc3n2Cc2ccc(F)cc2)CC1` [Compound 460, 3-[2-[4-[[1-[(4-fluorophenyl)methyl]-1H-benzimidazol-2-yl]methyl]-1-piperidinyl]ethyl]-2,3-dihydro-2-thioxo-4(1H)-quinazolinone] gave an ED50 [1] of 0.08 mg/kg and an ED50 (effects of serotonin; [2]) of 0.63 mg/kg.

`COc1ccc(CCN2CCC(Cc3nc4cccnc4n3Cc3cccs3)CC2)cc1` [Compound 238] showed an ED50 [1] of 0.08 mg/kg and an ED50 (effects of serotonin; [2]) of 0.63 mg/kg.

Work on `Nc1ccccc1C(=O)NCCN1CCC(Cc2nc3ccccc3n2Cc2cccs2)CC1` [Compound 478, 2-amino-N-[2-[4-[[1-(2-thienylmethyl)-1H-benzimidazol-2-yl]methyl]-1-piperidinyl]ethyl]benzamide] yielded an ED50 [1] of 0.02 mg/kg and an ED50 (effects of serotonin) of 0.04 mg/kg.

With `O=C(CCCN1CCC(Cc2nc3cccnc3n2Cc2ccc(F)cc2)CC1)c1ccc(F)cc1` [Compound 228] the “Compound 48/80 lethality test in rats ED50” value ([1]; s.c. or p.o. 1 h before compound 48/80 0.5 mg/kg i.v., 0.5 mg/kg, 240 min) was 0.04 mg/kg body weight and the “gastric lesion test ED50” value (effects of serotonin; oral, compound 48/80 1 mg/kg i.v., distension and lesions of stomach completely absent in 50% of rats, 1 mg/kg) was 0.01 mg/kg body weight.

`c1cnc(NCCN2CCC(Cc3nc4ccccc4n3Cc3cccs3)CC2)nc1` [Compound 336] showed an ED50 [1] of 0.01 mg/kg and an ED50 (effects of serotonin) of 0.08 mg/kg.

For `Cc1nc2n(c(=O)c1CCN1CCC(Oc3nc4ccccc4n3Cc3ccc(F)cc3)CC1)CCCC2` [Compound 264], the ED50 [1] was 0.04 mg/kg and the ED50 (effects of serotonin; [2]) was 0.63 mg/kg.

In the case of `Cc1nc2n(c(=O)c1CCN1CCC(Cc3nc4ccccc4n3Cc3ccc(F)cc3)CC1)CCCC2` [Compound 498, 3-[2-[4-[[1-[(4-fluorophenyl)methyl]-1H-benzimidazol-2-yl]methyl]-1-piperidinyl]ethyl]-6,7,8,9-tetrahydro-2-methyl-4H-pyrido[1,2-a]pyrimidin-4-one], the ED50 [1] is reported as 0.08 mg/kg and the ED50 (effects of serotonin; [2]) is reported as 0.16 mg/kg.

`Cc1nc2n(c(=O)c1CCN1CCC(Cc3nc4ccccc4n3Cc3cscn3)CC1)CCCC2` [Compound 262] gave an ED50 [1] of 0.04 mg/kg and an ED50 (effects of serotonin; [2]) of 0.16 mg/kg.

In the case of `Fc1ccc(Cn2c(OC3CCN(CCOc4ncccn4)CC3)nc3ccccc32)cc1` [Compound 390, 1-[(4-fluorophenyl)methyl]-2-[[1-[2-(2-pyrimidinyloxy)ethyl]-4-piperidinyl]oxy]-1H-benzimidazole], the ED50 [1] is reported as 0.04 mg/kg.

Compound `Fc1ccc(Cn2c(SC3CCN(CCNc4ncccn4)CC3)nc3ccccc32)cc1` [Compound 333, N-[2-[4-[[1-[(4-fluorophenyl)methyl]-1H-benzimidazol-2-yl]thio]-1-piperidinyl]ethyl]-2-pyrimidinamine] has an ED50 [1] of 0.04 mg/kg.

`O=c1oc2ccccc2cc1CCN1CCC(Cc2nc3ccccc3n2Cc2ccc(F)cc2)CC1` [Compound 161] showed an ED50 [1] of 0.04 mg/kg.
